Here are results for twelve compounds from ChEMBL document CHEMBL3045739, “Synthesis and Fungicidal Activity of 6-Alkyl Six-membered Cyclic Thiophosphates” (1997).

Type in all cases: functional
Test [1] deals with Athelia rolfsii. Nature of the test: Fungicidal activity against Athelia rolfsii assessed as fungal growth inhibition at 100 ppm by agar dilution method. To be noted: Agroathelia rolfsii; read-out: GI.
The subject of test [2] is Athelia rolfsii. Description: Fungicidal activity against Athelia rolfsii assessed as fungal growth inhibition at 10 ppm by agar dilution method. As to conditions: Agroathelia rolfsii; read-out: GI.
The test system of test [3] is Pythium. Nature of the test: Fungicidal activity against Pythium sp. assessed as fungal growth inhibition at 100 ppm by agar dilution method. To be noted: read-out: GI.
Test [4] relates to Pythium. Description: Fungicidal activity against Pythium sp. assessed as fungal growth inhibition at 10 ppm by agar dilution method. To be noted: read-out: GI.

With `CC(C)OP(=O)(OC(C)C)SCc1ccccc1` [IPROBENFOS], the inhibition of growth at 100 ppm turned out to be 100% with Athelia rolfsii [1] and 89% in the test with Pythium [3]. In addition, the figures for the inhibition of growth at 10 ppm in the test on Athelia rolfsii [2] and in the test on Pythium [4] were 69% and 42%, respectively.

As for `CCOP1(=S)OCc2cc(CC)ccc2O1` (stereo unspecified), the inhibition of growth at 100 ppm stood at 91% with Athelia rolfsii [1] and 82% in the test with Pythium [3]. Moreover, the inhibition of growth at 10 ppm with Athelia rolfsii [2] came out at 66%; with Pythium [4], 42%.

For the compound `CCCc1ccc2c(c1)COP(=S)(OCC)O2` (stereo unspecified), the inhibition of growth at 100 ppm is 84% with Athelia rolfsii [1] and 56% with Pythium [3]. Moreover, the inhibition of growth at 10 ppm with Athelia rolfsii [2] was determined as 63%.

For `CCCCc1ccc2c(c1)COP(=S)(Oc1ccc(C)cc1C(C)C)O2` (stereo unspecified), the values for the inhibition of growth at 100 ppm with Athelia rolfsii [1] and in the test with Pythium [3] were 41% and 39%, respectively.

As to `CCCCc1ccc2c(c1)COP(=S)(Oc1cc(C)ccc1C(C)C)O2` (stereo unspecified), the inhibition of growth at 100 ppm with Athelia rolfsii [1] stood at 58%; in the test on Pythium [3] it was 83%. Moreover, the inhibition of growth at 10 ppm in the test with Pythium [4] is 23%.

For `CCCCc1ccc2c(c1)COP(=S)(OCC)O2` (stereo unspecified), the inhibition of growth at 100 ppm in the test on Athelia rolfsii [1] stood at 76%; in the test on Pythium [3], 61%.

For `COP1(=S)OCc2ccccc2O1` (stereo unspecified) [SALITHION], the figures for the inhibition of growth at 100 ppm in the test with Athelia rolfsii [1] and in the test on Pythium [3] were 61% and 75%, respectively.

For the compound `CCCc1ccc2c(c1)COP(=S)(Oc1ccc(C)cc1C(C)C)O2` (stereo unspecified), the inhibition of growth at 100 ppm in the test on Athelia rolfsii [1] was determined as 27%; with Pythium [3], 3%.

For `CCOP1(=S)OCc2cc(C(C)C)ccc2O1` (stereo unspecified), the figures for the inhibition of growth at 100 ppm in the test on Athelia rolfsii [1] and in the test with Pythium [3] were 83% and 66%, respectively. Also, the inhibition of growth at 10 ppm in the test with Athelia rolfsii [2] is 45%.

As for `CCCc1ccc2c(c1)COP(=S)(Oc1cc(C)ccc1C(C)C)O2` (stereo unspecified), the inhibition of growth at 100 ppm with Athelia rolfsii [1] turned out to be 37%; with Pythium [3], 53%.

For `CCOP1(=S)OCc2cc(C(C)CC)ccc2O1` (stereo unspecified), the inhibition of growth at 100 ppm in the test with Athelia rolfsii [1] amounted to 67%; with Pythium [3], 56%.

`CCCc1ccc2c(c1)COP(=S)(OCCc1ccccc1)O2` (stereo unspecified): the inhibition of growth at 100 ppm in the test with Athelia rolfsii [1] and in the test on Pythium [3] was 48% in each case.
